The text below walks through data of patent US10596095B2, “Method for moisturizing skin using P-113 peptide” (PACGEN LIFE SCIENCE CORPORATION, priority 2015, dated 2020).

For one series, the system named is cells. Put plainly: Cytotoxicity test: MTT assay of cell survival rate. It is filed as cell-based. The settings on record: 0, 20, 100 and 200 μg/ml; treated 2 hours; FIG. 2. Here is the method:
The cytotoxicity test was performed with Methylthiazol tetrazolium bromide (MTT) assay to test the cell survival rate. The principle was that MTT is a water-soluble yellow dye, after reacting with cells it was reduced by the NADPH in the cells to become an insoluble dark blue crystal, then the blue crystal was dissolved with dimethyl sulfoxide (DMSO), the absorbance value was analyzed, the stronger the cell activity, the darker the blue, and when the cell was dead, it became yellow.
In the present invention, from low to high concentration (0, 20, 100 and 200 μg/ml) of P-113 peptide and the MI preservative were used to treat the cells for 2 hours, then the MTT solution was added for reaction, a spectrophotometer at the wavelength of 595 nm was used to analyze the cell survival rate, and the harmful toxic effect of the cosmetic raw material on the cells was determined.
Background: Tetrazolium assays rely on reduction of a dye to a coloured formazan, in cell work by metabolically active cells.

Series [1] in a line: Moisture absorption rate in Conway's dish at defined relative humidity. It counts as physicochemical. The settings on record: relative humidity 32%; 30° C., 24 hours; relative to hyaluronic acid at RH 32% set as 100%; FIG. 3. On the procedure: The moisture absorption of the P-113 peptide was determined by dissolving magnesium chloride (MgCl2) and potassium chloride (KCl), two types of salts, in water, preparing supersaturated solutions based on the respective solubility of these two types of salts, placing the solutions in sealed bottles to create a relative humidity of 32% and 84%, respectively, then taking P-113 peptide and hyaluronic acid for comparison test. The hyaluronic molecule of hyaluronic acid could carry up to 500 folds of water. The hyaluronic acid is currently recognized as the best moisturizing ingredient, and widely used in cosmetics and skincare products.
0.1 g of P-113 peptide and hyaluronic acid powder were weighed and placed in the internal chamber of a Conway's dish, saturated solutions were added in the external chamber, oil was applied on the rim of the Conway's dish lid to seal it completely, placed in an oven at 30° C. for 24 hours, then samples were removed and weighed.
Moisture absorption rate under different humidity was calculated by the following formula: Moisture absorption rate (%)=[(Wt−W0)/W0]×100%
(§1) wherein W0: the weight (g) of the initial sample, and Wt: the weight (g) of the sample removed after 24 hours.

The nature of series [2]: Moisture retention rate in Conway's dish at defined relative humidity. It is filed as physicochemical. The note with it: relative humidity 32%; 30° C., 24 hours; reference set as 100%; FIG. 4. On the procedure: In addition, the moisture retention and water absorption of P-113 peptide were determined by dissolving magnesium chloride (MgCl2) and potassium chloride (KCl), two types of salts, in water, preparing supersaturated solutions based on the solubility of these two types of salt respectively, separately placing in sealed bottles to create a relative humidity of 32% and 84% respectively, then using P-113 peptide and hyaluronic acid for comparison test.
0.1 g of P-113 peptide and hyaluronic acid powder were weighed and placed in the internal chamber of a Conway's dish, then 0.1 ml of deionized water was added, saturated solutions were then added in the external chamber, sealed with the Conway's dish lid and placed in the oven at 30° C. for 24 hours, then samples were removed and weighed.
Moisture retention at different humidity levels was calculated according to the following formula: Moisture retention rate (%)=[1−((Wt−W0)/W0)]×100%
as §1

In the case of `Cn1sccc1=O` [MI, Methylisothiazolinone], the “cell survival rate (MTT)” value in the series on cells is listed as “decreased the cell survival rate”. Regarding hyaluronic acid, the moisture absorption rate in series [1] is on record as 100%. This compound also had a moisture retention rate in series [2] of 100%.
